Reference: patent US12594276B2, “Inhibitors of human immunodeficiency virus replication” (ViiV Healthcare UK (No.5) Limited, priority 2024, dated 2026)

Experiments:
[1] = Compound cytotoxicity, XTT-based colorimetric assay; format: cell-based; settings: human; uninfected MT2 cells, day 4, XTT; read-out: CC50
Outline: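 Follows the antiviral assay procedure, but with uninfected MT2 cells. On day 4, cell viability is measured by XTT-based colorimetry, giving CC50 values.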

[2] = tested on: recombinant NL4-3 virus (nef section replaced with Renilla luciferase gene) in MT-2 cells; assay: HIV cell culture assay (antiviral activity, luciferase readout); format: cell-based; settings: Renilla, NL43, MT-2 cells infected for 4-5 days with recombinant NL4-3 Renilla luciferase virus
Outline: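 The reporter virus was produced by transfecting 293T cells with the NL4-3 nef/Renilla luciferase proviral clone. MT-2 cells were infected for 4–5 days with serial compound dilutions present. Luciferase was read with a live-cell substrate, and EC50 came from the exponential median-effect equation.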

SMILES	CC50 at 4 days [1]	EC50 [2]
COCCCn1nc(NS(C)(=O)=O)c2c(Cl)ccc(-n3c([C@H](Cc4cc(F)cc(F)c4)NC(=O)Cn4nc(C(F)F)c5c4C(F)(F)[C@@H]4C[C@H]54)nc4nc(C5CCC(F)(F)CC5)cc(NCCC5CCOCC5)c4c3=O)c21 (atropisomer, axis not shown; (P)) [Example 550, N-[(1S)-1-[(3P)-3-[4-chloro-3-methanesulfonamido-1-(3-methoxypropyl)-1H-indazol-7-yl]-7-(4,4-difluorocyclohexyl)-5-{[2-(oxan-4-yl)ethyl]amino}-4-oxo-3H,4H-pyrido[2,3-d]pyrimidin-2-yl]-2-(3,5-difluorophenyl)ethyl]-2-[(2S,4R)-9-(difluoromethyl)-5,5-difluoro-7,8-diazatricyclo[4.3.0.0^2,^4]nona-1(6),8-dien-7-yl]acetamide]	> 20 nM	0.012 nM
COCCCn1nc(NS(C)(=O)=O)c2c(Cl)ccc(-n3c([C@H](Cc4cc(F)cc(F)c4)NC(=O)Cn4nc(C(F)F)c5c4C(F)(F)[C@@H]4C[C@H]54)nc4nc(C5CCC(F)(F)CC5)cc(NCCN5CCC(F)(F)C5)c4c3=O)c21 (atropisomer, axis not shown; (P)) [Example 552, N-[(1S)-1-[(3P)-3-[4-chloro-3-methanesulfonamido-1-(3-methoxypropyl)-1H-indazol-7-yl]-7-(4,4-difluorocyclohexyl)-5-{[2-(3,3-difluoropyrrolidin-1-yl)ethyl]amino}-4-oxo-3H,4H-pyrido[2,3-d]pyrimidin-2-yl]-2-(3,5-difluorophenyl)ethyl]-2-[(2S,4R)-9-(difluoromethyl)-5,5-difluoro-7,8-diazatricyclo[4.3.0.0^2,^4]nona-1(6),8-dien-7-yl]acetamide]	> 20 nM	0.006 nM
COCCCn1nc(NS(C)(=O)=O)c2c(Cl)ccc(-n3c([C@H](Cc4cc(F)cc(F)c4)NC(=O)Cn4nc(C(F)F)c5c4C(F)(F)[C@@H]4C[C@H]54)nc4nc(C5(F)CCC(F)(F)CC5)cc(C)c4c3=O)c21 (atropisomer, axis not shown; (P)) [Example 553, N-[(1S)-1-[(3P)-3-[4-chloro-3-methanesulfonamido-1-(3-methoxypropyl)-1H-indazol-7-yl]-5-methyl-4-oxo-7-(1,4,4-trifluorocyclohexyl)-3H,4H-pyrido[2,3-d]pyrimidin-2-yl]-2-(3,5-difluorophenyl)ethyl]-2-[(2S,4R)-9-(difluoromethyl)-5,5-difluoro-7,8-diazatricyclo[4.3.0.0^2,^4]nona-1(6),8-dien-7-yl]acetamide]	> 20 nM	0.024 nM
Cc1cc(C2(CF)CCC(F)(F)CC2)nc2nc([C@H](Cc3cc(F)cc(F)c3)NC(=O)Cn3nc(C(F)F)c4c3C(F)(F)[C@@H]3C[C@H]43)n(-c3ccc(Cl)c4c(NS(C)(=O)=O)nn(CCN5C[C@H](F)C[C@H](F)C5)c34)c(=O)c12 (atropisomer, axis not shown; (P)) [Example 556, N-[(1S)-1-[(3P)-3-(4-chloro-1-{2-[(3R,5S)-3,5-difluoropiperidin-1-yl]ethyl}-3-methanesulfonamido-1H-indazol-7-yl)-7-[4,4-difluoro-1-(fluoromethyl)cyclohexyl]-5-methyl-4-oxo-3H,4H-pyrido[2,3-d]pyrimidin-2-yl]-2-(3,5-difluorophenyl)ethyl]-2-[(2S,4R)-9-(difluoromethyl)-5,5-difluoro-7,8-diazatricyclo[4.3.0.0^2,^4]nona-1(6),8-dien-7-yl]acetamide]	> 20 nM	0.014 nM
Cc1cc(C2(CF)CCC(F)(F)CC2)nc2nc([C@H](Cc3cc(F)cc(F)c3)NC(=O)Cn3nc(C4CC4)c4c3C[C@@H]3C[C@H]43)n(-c3ccc(Cl)c4c(NS(C)(=O)=O)nn(CCN5C[C@@H](C)O[C@@H](C)C5)c34)c(=O)c12 (atropisomer, axis not shown; (P)) [Example 557, N-[(1S)-1-[(3P)-3-(4-chloro-1-{2-[(2R,6S)-2,6-dimethylmorpholin-4-yl]ethyl}-3-methanesulfonamido-1H-indazol-7-yl)-7-[4,4-difluoro-1-(fluoromethyl)cyclohexyl]-5-methyl-4-oxo-3H,4H-pyrido[2,3-d]pyrimidin-2-yl]-2-(3,5-difluorophenyl)ethyl]-2-[(2S,4S)-9-cyclopropyl-7,8-diazatricyclo[4.3.0.0^2,^4]nona-1(6),8-dien-7-yl]acetamide]	> 20 nM	0.007 nM
COCCCn1nc(NS(C)(=O)=O)c2c(Cl)ccc(-n3c([C@H](Cc4cc(F)cc(F)c4)NC(=O)Cn4nc(C(F)F)c5c4C(F)(F)[C@@H]4C[C@H]54)nc4nc(C5CCC(F)(F)CC5)cc(NCCC(C)(C)OC)c4c3=O)c21 (atropisomer, axis not shown; (P)) [Example 565, N-[(1S)-1-[(3P)-3-[4-chloro-3-methanesulfonamido-1-(3-methoxypropyl)-1H-indazol-7-yl]-7-(4,4-difluorocyclohexyl)-5-[(3-methoxy-3-methylbutyl)amino]-4-oxo-3H,4H-pyrido[2,3-d]pyrimidin-2-yl]-2-(3,5-difluorophenyl)ethyl]-2-[(2S,4R)-9-(difluoromethyl)-5,5-difluoro-7,8-diazatricyclo[4.3.0.0^2,^4]nona-1(6),8-dien-7-yl]acetamide]	> 20 nM	0.011 nM
COCCCn1nc(NS(C)(=O)=O)c2c(Cl)ccc(-n3c([C@H](Cc4cc(F)cc(F)c4)NC(=O)Cn4nc(C(F)F)c5c4C(F)(F)[C@@H]4C[C@H]54)nc4nc(C5CCC(F)(F)CC5)cc(NCC(=O)N5CCCCC5)c4c3=O)c21 (atropisomer, axis not shown; (P)) [Example 566, N-[(1S)-1-[(3P)-3-[4-chloro-3-methanesulfonamido-1-(3-methoxypropyl)-1H-indazol-7-yl]-7-(4,4-difluorocyclohexyl)-4-oxo-5-{[2-oxo-2-(piperidin-1-yl)ethyl]amino}-3H,4H-pyrido[2,3-d]pyrimidin-2-yl]-2-(3,5-difluorophenyl)ethyl]-2-[(2S,4R)-9-(difluoromethyl)-5,5-difluoro-7,8-diazatricyclo[4.3.0.0^2,^4]nona-1(6),8-dien-7-yl]acetamide]	> 20 nM	0.079 nM
COCCCn1nc(NS(C)(=O)=O)c2c(Cl)ccc(-n3c([C@H](Cc4cc(F)cc(F)c4)NC(=O)Cn4nc(C(F)F)c5c4C(F)(F)[C@@H]4C[C@H]54)nc4nc(C5CCC(F)(F)CC5)cc(NC[C@H]5CCOC5)c4c3=O)c21 (atropisomer, axis not shown; (P)) [Example 567, N-[(1S)-1-[(3P)-3-[4-chloro-3-methanesulfonamido-1-(3-methoxypropyl)-1H-indazol-7-yl]-7-(4,4-difluorocyclohexyl)-4-oxo-5-({[(3R)-oxolan-3-yl]methyl}amino)-3H,4H-pyrido[2,3-d]pyrimidin-2-yl]-2-(3,5-difluorophenyl)ethyl]-2-[(2S,4R)-9-(difluoromethyl)-5,5-difluoro-7,8-diazatricyclo[4.3.0.0^2,^4]nona-1(6),8-dien-7-yl]acetamide]	> 20 nM	0.009 nM
COCCCn1nc(NS(C)(=O)=O)c2c(Cl)ccc(-n3c([C@H](Cc4cc(F)cc(F)c4)NC(=O)Cn4nc(C(F)F)c5c4C(F)(F)[C@@H]4C[C@H]54)nc4nc(C5CCC(F)(F)CC5)cc(NC[C@@H]5CCOC5)c4c3=O)c21 (atropisomer, axis not shown; (P)) [Example 568, N-[(1S)-1-[(3P)-3-[4-chloro-3-methanesulfonamido-1-(3-methoxypropyl)-1H-indazol-7-yl]-7-(4,4-difluorocyclohexyl)-4-oxo-5-({[(3S)-oxolan-3-yl]methyl}amino)-3H,4H-pyrido[2,3-d]pyrimidin-2-yl]-2-(3,5-difluorophenyl)ethyl]-2-[(2S,4R)-9-(difluoromethyl)-5,5-difluoro-7,8-diazatricyclo[4.3.0.0^2,^4]nona-1(6),8-dien-7-yl]acetamide]	> 20 nM	0.01 nM
Cc1cc(C2(F)CCC(F)(F)CC2)nc2nc([C@H](Cc3cc(F)cc(F)c3)NC(=O)Cn3nc(C(F)(F)F)c4c3C(F)(F)[C@@H]3C[C@H]43)n(-c3ccc(Cl)c4c(NS(C)(=O)=O)nn(CCN5C[C@H](F)C[C@H](F)C5)c34)c(=O)c12 (atropisomer, axis not shown; (P)) [Example 569, N-[(1S)-1-[(3P)-3-(4-chloro-1-{2-[(3R,5S)-3,5-difluoropiperidin-1-yl]ethyl}-3-methanesulfonamido-1H-indazol-7-yl)-5-methyl-4-oxo-7-(1,4,4-trifluorocyclohexyl)-3H,4H-pyrido[2,3-d]pyrimidin-2-yl]-2-(3,5-difluorophenyl)ethyl]-2-[(2S,4R)-5,5-difluoro-9-(trifluoromethyl)-7,8-diazatricyclo[4.3.0.0^2,^4]nona-1(6),8-dien-7-yl]acetamide]	> 20 nM	0.012 nM
Cc1cc(C2(F)CCC(F)(F)CC2)nc2nc([C@H](Cc3cc(F)cc(F)c3)NC(=O)Cn3nc(C4CC4)c4c3C(F)(F)[C@@H]3C[C@H]43)n(-c3ccc(Cl)c4c(NS(C)(=O)=O)nn(CCN5C[C@H](F)C[C@H](F)C5)c34)c(=O)c12 (atropisomer, axis not shown; (P)) [Example 570, N-[(1S)-1-[(3P)-3-(4-chloro-1-{2-[(3R,5S)-3,5-difluoropiperidin-1-yl]ethyl}-3-methanesulfonamido-1H-indazol-7-yl)-5-methyl-4-oxo-7-(1,4,4-trifluorocyclohexyl)-3H,4H-pyrido[2,3-d]pyrimidin-2-yl]-2-(3,5-difluorophenyl)ethyl]-2-[(2S,4R)-9-cyclopropyl-5,5-difluoro-7,8-diazatricyclo[4.3.0.0^2,^4]nona-1(6),8-dien-7-yl]acetamide]	> 20 nM	0.029 nM
